According to patent US20210188856A1, “CRYSTAL FORM OF HYDROCHLORIDE OF PYRAZOLOHETEROARYL DERIVATIVE AND PREPARATION METHOD” (JIANGSU HENGRUI MEDICINE CO., LTD., priority 2018, published 2021):

Molecular target: T1, human TLR8 (Homo sapiens, UniProt Q9NR97)
T1 construct: host or cells: HEK-Blue hTLR8 (HEK293-derived) stably transfected cells
T1 sequence (Q9NR97 27-1041): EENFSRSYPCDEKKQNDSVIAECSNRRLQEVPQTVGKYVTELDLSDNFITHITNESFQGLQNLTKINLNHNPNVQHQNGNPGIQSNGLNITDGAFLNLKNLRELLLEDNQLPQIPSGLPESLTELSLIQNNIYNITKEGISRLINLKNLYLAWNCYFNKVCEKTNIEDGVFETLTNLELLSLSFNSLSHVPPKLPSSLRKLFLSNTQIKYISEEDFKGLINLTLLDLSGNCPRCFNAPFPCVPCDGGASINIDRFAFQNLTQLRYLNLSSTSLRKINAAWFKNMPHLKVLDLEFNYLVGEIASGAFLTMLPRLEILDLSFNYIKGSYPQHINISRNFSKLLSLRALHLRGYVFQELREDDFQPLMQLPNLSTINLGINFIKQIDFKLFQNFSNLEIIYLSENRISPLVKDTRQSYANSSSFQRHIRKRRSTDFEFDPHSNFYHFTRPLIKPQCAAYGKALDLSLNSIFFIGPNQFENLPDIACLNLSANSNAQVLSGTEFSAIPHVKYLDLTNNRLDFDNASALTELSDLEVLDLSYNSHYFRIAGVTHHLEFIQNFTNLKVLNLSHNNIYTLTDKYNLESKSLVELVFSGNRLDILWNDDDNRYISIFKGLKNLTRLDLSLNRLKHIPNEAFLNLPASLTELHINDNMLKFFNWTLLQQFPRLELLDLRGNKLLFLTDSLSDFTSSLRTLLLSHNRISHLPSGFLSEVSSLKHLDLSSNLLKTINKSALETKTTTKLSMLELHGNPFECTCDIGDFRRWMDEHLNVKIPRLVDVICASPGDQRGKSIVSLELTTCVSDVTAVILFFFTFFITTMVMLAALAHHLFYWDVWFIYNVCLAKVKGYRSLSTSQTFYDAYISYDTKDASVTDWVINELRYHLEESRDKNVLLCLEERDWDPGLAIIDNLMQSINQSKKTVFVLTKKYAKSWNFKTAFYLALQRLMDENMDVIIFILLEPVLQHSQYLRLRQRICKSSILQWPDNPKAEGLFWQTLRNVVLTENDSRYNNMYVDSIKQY
Assay: Agonistic effect on human TLR8 (HEK-Blue hTLR8 cells)
Type: cell-based
Protocol: The agonistic effect of the compound represented by formula (I) on the hTLR8 protein expressed in HEK-Blue™ hTLR8 stably transfected cells was determined by the following experimental method:
A bag of HEK-Blue detection dry powder was dissolved in 50 mL of water free of endotoxin, and the solution was then placed in an incubator at 37° C. for 10 minutes followed by sterile filtration to prepare a HEK-Blue detection medium. The compound was firstly formulated into a 20 mM stock solution, then diluted with pure DMSO to a maximum concentration of 6×10^6 nM, and a total of 10 points were obtained by a 3-fold gradient dilution. The compound was firstly diluted 20-fold with the medium, then 20 μL of the diluted compound was added to each well.
The supernatant was removed from the HEK-Blue™ hTLR8 cells, to which 2-5 mL of pre-warmed PBS was then added. The cells were placed in an incubator for 1-2 minutes, gently pipetted, and counted by trypan blue staining. The cells were re-suspended in the HEK-Blue detection medium and the concentration was adjusted to 2.2×10^5 cells/mL. 180 μL of cells was added to the above 96-well plate added with 20 μL of the compound, and incubated at 37° C. for 6-16 hours.
The plate was read with a microplate reader at a wavelength of 620 nm. The corresponding OD values were obtained, and the EC50 value of the compound was calculated by Graphpad Prism.

CCCCOc1nc(N)c2cnn(Cc3ccc(CN4CCCC4)cc3)c2n1 [compound represented by formula (I), 6-Butoxy-1-(4-(pyrrolidin-1-ylmethyl)benzyl)-1H-pyrazolo[3,4-d]pyrimidin-4-amine]
agonistic effect on human TLR8 (in words) (HEK-Blue hTLR8 cells): no agonistic effect | selectivity for TLR7 over TLR8 (in words) (from TLR7 and TLR8 results): high selectivity
